{"source": "paper PMC10857328", "about": "“Utilization of Biopolymer-Based Lutein Emulsion as an Effective Delivery System to Improve Lutein Bioavailability in Neonatal Rats” (Nutrients, 2024)", "key": {"[1]": {"assay": "Acute dosing study: tissue lutein profiles", "assay_type": "in vivo, neonatal Sprague-Dawley rats", "details": "single oral dose, 10 mg/kg, free lutein or emulsion", "description": "To determine the bioavailability of lutein in neonatal Sprague-Dawley rats, an acute dosing study was conducted. The procedure was approved by the Institutional Animal Care and Use Committee of the University of Alabama (Number: 21-08-4864, 23 September 2021). On postnatal day 10 (P10), neonatal rats were randomly selected from litters and received a single dose of either free lutein (i.e., lutein ester dissolved in olive oil) or lutein emulsion, both containing 10 mg/kg body weight of lutein. The dose was administered to the pup’s mouth via a pipette. The concentration of lutein ester in the oil phase was 0.004 g/mL. The lutein dosage was selected based on our pilot study and previous studies. It is higher than the dosage used in human newborns but is considered acceptable and safe to be used in pharmacokinetic studies in rodent models. At 0.5 h, 1 h, 2 h, 4 h, 6 h, 12 h, and 24 h after dosing, pups (n = 3/time point/group) were euthanized, and blood, liver, spleen, brain, and eye were collected. Serum was obtained by centrifuging blood samples and tissues were stored at −80 °C until time of analysis. A group of rat pups (n = 3) not receiving treatments were used to measure the baseline lutein concentrations. Throughout the study, maternal rats consumed a purified diet with no lutein (D19120501, Research Diets Inc, New Brunswick, NJ, USA) (Table 1).\nSerum and tissue lutein concentration was determined using an ultra-performance liquid chromatography (UPLC) system (Waters, Milford, MA, USA) equipped with a photo-diode array detector (PDA)/MS/MS, according to our well-established methods with slight modification. As for the serum, 100 μL of the sample was incubated with 2 mL of 100% ethanol at room temperature for an hour for lipid extraction. For the tissues, ~0.1 g of the sample was weighed, homogenized, and incubated with 2 mL of 100% ethanol at room temperature for an hour. An amount of 1 mL of 5% (w/v) potassium hydroxide was added to the sample and incubated in a water bath at 60 °C for 45 min for saponification. […]"}, "[2]": {"assay": "Daily dosing studies: body and tissue weights, observable illness", "assay_type": "in vivo, neonatal Sprague-Dawley rats", "details": "daily oral administration, 2 mg/kg, P5-P18, both daily dosing studies", "description": "To determine the effects of daily consumption of CTA-stabilized lutein emulsion on tissue lutein status, two daily dosing studies were conducted. The procedures were approved by the Institutional Animal Care and Use Committee of the University of Alabama (Number: 21-02-4373, 4 February 2021). For daily dosing study 1 (Figure 1B), on P5, rat pups (n = 8–9/group) were randomly selected from the litters and received an oral dose of either free lutein (i.e., lutein ester dissolved in olive oil) or lutein emulsion both containing 2 mg/kg body weight of lutein. […] Dosing was repeated daily until P18. The dosage was determined from previous research in both rodent and human newborns and was also established as an Acceptable Daily Intake for lutein by the Joint Food and Agricultural Organization/World Health Organization. On P19, pups were euthanized. Rats are known to wean between P19 and P21 [47]. Blood from vena cava, liver, spleen, brain, eye, kidney, lung, white adipose tissue (WAT), and brown adipose tissue (BAT) were collected. Blood samples were centrifuged to obtain serum. Serum and collected tissues were frozen at −80 °C until analysis.\nTo mimic the human dietary intake of lutein, daily dosing study 2 was conducted (Figure 1C). […]"}}}
{"molecule": "CC1=C[C@H](O)CC(C)(C)[C@H]1/C=C/C(C)=C/C=C/C(C)=C/C=C/C=C(C)/C=C/C=C(C)/C=C/C1=C(C)C[C@@H](O)CC1(C)C", "note": "[lutein, Lutein]", "values": [{"measurement": "Earliest time point for lutein to be detectable in brain", "setting": "[1]", "value": 12, "unit": "h"}, {"measurement": "Earliest time point for lutein to be detectable in eye", "setting": "[1]", "value": 24, "unit": "h"}, {"measurement": "Earliest time point for lutein to be detectable in spleen", "setting": "[1]", "value": 6, "unit": "h"}, {"measurement": "Observable illness in the pups", "setting": "[2]", "value": "no observable illness"}]}
